In PMC6556873, “Rapid Covalent-Probe Discovery by Electrophile-Fragment Screening” (Journal of the American Chemical Society, 2019):
Like-named read-outs stand apart in the source and are kept apart here.

What was measured:
[1] = in vitro; design: species or system CCD841, HEK293; details: human, hb2 cells, read-out: HB-2 Cells Viability (%)
[2] = in vitro; design: species or system HB2, CCD841; details: human, hek293 cells
[3] = biological target: T1, OTUB2 (OTUB2A) (Homo sapiens, UniProt Q96DC9); design: Intact protein LC/MS covalent labelling, fragments in pools of five, 200 uM each, 4 °C; details: 24 h, 4 °C, pool of five; 200 µM; covalent
T1 construct: full length residues 1-234, E. coli BL21(DE3)-R3, His tag removed by TEV, construct 27312 Da
T1 sequence (Q96DC9 1-234): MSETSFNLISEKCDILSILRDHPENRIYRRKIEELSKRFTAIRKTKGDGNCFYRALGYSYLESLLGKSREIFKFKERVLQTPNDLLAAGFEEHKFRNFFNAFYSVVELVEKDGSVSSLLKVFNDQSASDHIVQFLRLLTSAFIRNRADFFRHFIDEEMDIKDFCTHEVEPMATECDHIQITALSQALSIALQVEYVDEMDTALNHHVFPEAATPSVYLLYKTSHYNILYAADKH
Procedure: (§1) Incubations were performed at 200 μM for each compound and 2 μM of protein (10 μM for BSA) for 24 h at 4 °C with moderate shaking. Incubation buffers varied among proteins (PBS pH 7.4 for QSOX1 and BSA; 10 mM HEPES pH 7.5, 0.3 M NaCl, 0.5 mM TCEP for PCAF, UPS8, and NUDT7; […]; 10 mM Na2HPO4 pH 7.5 100 mM NaCl 5 mM β-mercaptoethanol for NV3CP; 20 mM Na phosphate pH 7.5 for NNMT; […]. The reaction was stopped by quenching with formic acid, 0.4% final concentration. Each protein was incubated with the electrophilic library in pools of five compounds per well. The pool’s composition maximized the difference in mass between fragments in the same well. Incubations were performed with each fragment at 200 μM, for 24 h at 4 °C, to allow the screening of proteins that are not stable for long time periods at higher temperatures. Following incubation, we used intact protein [compound left out] chromatography/mass spectrometry (LC/MS) to identify the fragments and quantify their labeling (Figure 3A). […] There was good agreement between the percent of labeling of NUDT7 by 100 random individual compounds and that obtained in pools of five (R^2=0.78; Figure S6 and Data set 2 in the Supporting Information).

[4] = biological target: T2, NUDT7 (Homo sapiens, UniProt P0C024); design: Intact protein LC/MS covalent labelling, fragments in pools of five, 200 uM each, 4 °C; details: 24 h, 4 °C, pool of five; 200 µM; covalent
T2 construct: residues 14-235, E. coli, pNIC28-Bsa4, N-terminal His6 tag removed by TEV, construct 26672 Da
Procedure: as §1

[5] = biological target: T3, PCAF (Homo sapiens, UniProt Q92831); design: Intact protein LC/MS covalent labelling, fragments in pools of five, 200 uM each, 4 °C; details: 24 h, 4 °C, pool of five; 200 µM; covalent
T3 construct: gene KAT2B
Procedure: as §1

[6] = biological target: T4, BSA (Bos taurus, UniProt P02769); design: Intact protein LC/MS covalent labelling, fragments in pools of five, 200 uM each, 4 °C; details: 24 h, 4 °C, pool of five; 200 µM; covalent
T4 construct: gene ALB
Procedure: as §1

[7] = in vitro; design: species or system HB2, HEK293; details: human, ccd841 cells

T4 sequence (P02769 whole entry, the tested form may be a part): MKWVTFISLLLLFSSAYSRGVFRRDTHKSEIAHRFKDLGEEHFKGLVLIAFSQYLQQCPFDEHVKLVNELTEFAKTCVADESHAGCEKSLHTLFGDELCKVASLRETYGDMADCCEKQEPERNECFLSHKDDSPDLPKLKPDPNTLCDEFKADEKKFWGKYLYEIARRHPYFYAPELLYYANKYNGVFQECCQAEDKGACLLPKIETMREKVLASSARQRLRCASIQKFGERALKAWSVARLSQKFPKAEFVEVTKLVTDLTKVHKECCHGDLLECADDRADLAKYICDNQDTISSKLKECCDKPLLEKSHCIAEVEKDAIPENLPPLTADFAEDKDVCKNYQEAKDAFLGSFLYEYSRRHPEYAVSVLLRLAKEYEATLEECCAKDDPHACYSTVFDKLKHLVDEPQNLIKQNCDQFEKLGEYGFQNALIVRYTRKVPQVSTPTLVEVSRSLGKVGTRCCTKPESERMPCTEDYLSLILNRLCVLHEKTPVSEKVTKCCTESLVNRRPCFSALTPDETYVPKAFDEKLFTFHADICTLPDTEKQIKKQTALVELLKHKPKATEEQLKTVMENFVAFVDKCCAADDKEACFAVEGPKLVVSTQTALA
T3 sequence (Q92831 whole entry, the tested form may be a part): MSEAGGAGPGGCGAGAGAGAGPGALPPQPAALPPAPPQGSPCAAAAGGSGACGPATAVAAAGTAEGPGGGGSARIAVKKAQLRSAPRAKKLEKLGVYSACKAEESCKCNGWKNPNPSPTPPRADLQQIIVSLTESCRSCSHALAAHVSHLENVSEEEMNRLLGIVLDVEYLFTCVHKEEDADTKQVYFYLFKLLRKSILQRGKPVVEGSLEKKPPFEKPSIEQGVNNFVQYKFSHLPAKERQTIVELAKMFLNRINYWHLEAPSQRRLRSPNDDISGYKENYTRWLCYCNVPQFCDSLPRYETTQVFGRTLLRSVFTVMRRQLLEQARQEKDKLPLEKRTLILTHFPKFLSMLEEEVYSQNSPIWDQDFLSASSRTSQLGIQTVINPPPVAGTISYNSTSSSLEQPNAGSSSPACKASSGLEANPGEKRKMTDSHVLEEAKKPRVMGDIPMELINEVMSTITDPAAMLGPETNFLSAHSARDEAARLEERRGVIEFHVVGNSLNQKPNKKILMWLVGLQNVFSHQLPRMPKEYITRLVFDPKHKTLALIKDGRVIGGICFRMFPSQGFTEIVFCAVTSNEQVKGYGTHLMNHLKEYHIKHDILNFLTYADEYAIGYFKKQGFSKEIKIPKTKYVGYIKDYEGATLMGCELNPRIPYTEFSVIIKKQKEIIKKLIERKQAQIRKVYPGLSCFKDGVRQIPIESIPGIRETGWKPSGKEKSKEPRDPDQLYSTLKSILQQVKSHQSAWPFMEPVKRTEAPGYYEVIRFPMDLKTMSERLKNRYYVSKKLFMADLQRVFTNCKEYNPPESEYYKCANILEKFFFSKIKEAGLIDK
T2 sequence (P0C024 14-235): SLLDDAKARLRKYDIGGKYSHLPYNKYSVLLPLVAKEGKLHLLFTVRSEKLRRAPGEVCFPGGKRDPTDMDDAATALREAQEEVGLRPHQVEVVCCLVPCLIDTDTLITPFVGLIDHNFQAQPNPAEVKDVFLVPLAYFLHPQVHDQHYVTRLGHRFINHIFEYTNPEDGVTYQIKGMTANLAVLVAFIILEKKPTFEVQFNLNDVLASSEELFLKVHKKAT

| SMILES | viability at 48 h, 10 µM [1] | viability at 48 h, 10 µM [2] | OTUB2 [3] | NUDT7 [4] | PCAF [5] | BSA [6] | viability at 48 h, 10 µM [7] |
| --- | --- | --- | --- | --- | --- | --- | --- |
| C=CC(=O)N1CCOc2ccccc21 [PCM-0102629] | 80.9% | 71.1% | 0 | 0 | 0 | 0 | 86.1% |
| CC(NC(=O)CCl)c1ccc(Cl)c(Cl)c1 (stereo not drawn) [PCM-0102096] | 28.9% | 21.3% | 0.26 | 0.51 | 0 | 0 | 58.1% |
| CC1CCc2c(sc(NC(=O)CCl)c2C#N)C1 (stereo not drawn) [PCM-0102420] | 50.9% | 43.4% | 0 | 0.47 | 0 | 0 | 81.6% |
| CC(C)n1nccc1NC(=O)CCl.Cl [PCM-0102472] | 92.7% | 101% | 0 | 0 | 0 | 0 | 107% |
| CC(NC(=O)CCl)c1ccc2c(c1)OCCO2 (stereo not drawn) [PCM-0102342] | 93.8% | 73.1% | 0.57 | 0.08 | 0 | 0 | 87.2% |
| C=CC(=O)N1CCC2(CC1)NC(=O)C1(CCCCC1)N2 [PCM-0102520] | 101% | 107% | 0 | 0 | 0 | 0 | 106% |
| CC(NC(=O)CCl)c1ccc(Cl)cc1 (stereo not drawn) [PCM-0102334] | 78.4% | 68.5% | 0.25 | 0 | 0 | 0 | 67.8% |
| COC(=O)c1ccc(C)c(NC(=O)CCl)c1 [PCM-0103027] | 34.3% | 22.1% | 0 | 0.05 | 0 | 0 | 54.7% |
| O=C(CCl)N1CCNC1=O [PCM-0102338] | 99.5% | 86.5% | 0 | 0 | 0 | 0 | 98.6% |
| Cc1ccc(-n2nc(C)c(NC(=O)CCl)c2C)cc1 [PCM-0102131] | 63.8% | 30.1% | 0 | 0 | 0 | 0 | 26.3% |
| O=C(CCl)NCc1ccc(Cl)s1 [PCM-0103080] | 79.6% | 73% | 0.79 | 0 | 0 | 0 | 61.2% |
| C=CC(=O)N1CCC2(CC1)CNC(=O)C2 [PCM-0102690] | 100% | 95.1% | 0 | 0 | 0 | 0 | 107% |
| CC(NC(=O)CCl)c1ccc2c(c1)OCO2 (stereo not drawn) [PCM-0103030] | 89.2% | 78.2% | 0.28 | 0.12 | 0 | 0 | 102% |
| O=C(CCl)NC(=O)c1ccc(Cl)cc1 [PCM-0102711] | 98.9% | 103% | 0 | 0 | 0 | 0 | 96.8% |
| C=CC(=O)N1CCC(n2nnc3c2CCCC3)CC1 [PCM-0102437] | 106% | 91.5% | 0 | 0 | 0 | 0 | 92.9% |
